# Experiment: Measurement of relaxivity of Gd-HP-DO3A-Dox-LTSL at 1.5T
# Type: physicochemical
# Settings: free contrast agent
# Experimental: T1 of all of the solutions was calculated from the fit of signal intensity vs. inversion time in images obtained with a T1-weighted inversion recovery sequence with variable inversion time (T1=50, 75, 100, 150, 300, 450, 600, 900, 1050 ms). Relaxivity was obtained as the slope of 1/T1 vs. Gd-HP-DO3A concentration. All imaging was performed using a clinical 1.5T MR scanner (Philips Medical Systems, Best, The Netherlands).
compound,measurement,value
"CC(O)CN1CCN(CC(=O)[O-])CCN(CC(=O)[O-])CCN(CC(=O)[O-])CC1.[Gd+3] (stereo not shown) [ProHance®, gadolinium complex of 10-(2-hydroxy-propyl)-1,4,7,10-tetraazacyclododecane-1,4,7-triacetic acid]",relaxivity (slope of 1/T1 vs concentration),4.05 ± 0.14 mM⁻¹ s⁻¹

# Source: patent US20120141381A1, “Methods For Loading Contrast Agents Into A Liposome” (Duke University Office of Technology & Venture, priority 2009, published 2012)
